Values of other authors in patent publication US8426044B2, “Method for imparting antimicrobial activity to a medical device” (Board of Regents, The University of Texas System, priority 2009, dated 2013).

Key:
[1] = for solubility in organic solvents: organic solvents incl. alcohols, ketones, ethers, aldehydes, acetonitrile, acetic acid, methylene chloride, chloroform
[2] = tested on: Pseudomonas aeruginosa cells embedded in a biofilm; conditions: MBC for the identical strain grown in liquid suspension

## [H]/N=C(\N/C(=N/[H])NCCCCCCNC(=N)NC(=N)Nc1ccc(Cl)cc1)Nc1ccc(Cl)cc1 [Chlorhexidine]
[1]
  solubility in organic solvents: soluble in both water and organic solutions
  solubility in water: soluble in both water and organic solutions

## NC[C@H]1O[C@H](O[C@H]2[C@H](O)[C@@H](O[C@H]3O[C@H](CO)[C@@H](O)[C@H](N)[C@H]3O)[C@H](N)C[C@@H]2N)[C@H](N)C[C@@H]1O [tobramycin]
[2]
  antibiotic level unable to kill biofilm-embedded cells: greater than 50 times the minimum bactericidal concentration (MBC)

## CO[C@H]1/C=C/O[C@@]2(C)Oc3c(C)c(O)c4c(O)c(c(/C=N/N5CCN(C)CC5)c(O)c4c3C2=O)NC(=O)/C(C)=C\C=C\[C@H](C)[C@H](O)[C@@H](C)[C@@H](O)[C@@H](C)[C@H](OC(C)=O)[C@@H]1C [Rifampin]
[1]
  solubility in organic solvents: freely soluble in acidic aqueous solutions and organic solutions
  solubility in water: very slightly soluble in water
